The values that follow come from paper PMC11352409, “Subtype-Specific Ligand Binding and Activation Gating in Homomeric and Heteromeric P2X Receptors” (Biomolecules, 2024).

Assay type in all cases: cell-based
The target in experiment [1] is T1, human P2X2 receptors (Homo sapiens, UniProt Q9UBL9).
T1 construct: expressed in transfected cells
T1 sequence (Q9UBL9 1-404 isoform Q9UBL9-2): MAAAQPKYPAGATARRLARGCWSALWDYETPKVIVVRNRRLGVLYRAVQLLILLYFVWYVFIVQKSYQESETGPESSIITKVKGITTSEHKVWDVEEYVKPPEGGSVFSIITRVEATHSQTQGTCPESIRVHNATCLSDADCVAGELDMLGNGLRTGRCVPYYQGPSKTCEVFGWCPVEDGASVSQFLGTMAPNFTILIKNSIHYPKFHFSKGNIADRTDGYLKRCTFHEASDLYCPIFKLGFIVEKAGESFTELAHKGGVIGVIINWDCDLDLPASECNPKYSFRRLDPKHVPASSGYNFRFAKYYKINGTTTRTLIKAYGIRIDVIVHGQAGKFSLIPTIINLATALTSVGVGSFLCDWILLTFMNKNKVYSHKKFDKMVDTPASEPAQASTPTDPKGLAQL
The experiment can be described thus: Whole-cell patch-clamp concentration-activation, HEK293 cells stably expressing hP2X2. The settings on record: for Hill: hP2X2, Hill coefficient of concentration-activation fit; for Effect (Fold in ATP Potency): hP2X2, relative to ATP; for Effect (Fold in ATP Efficacy): hP2X2, relative to current at 100 µM ATP; for EC50: hP2X2, whole-cell, -50 mV, divalent-cation-free bath with 10 mM EGTA, normalised to 100 µM ATP. As to the method: (§1) Human P2X receptors were expressed from HEK293 cell lines containing an inducible promoter system (Flp-In-T-REx 293, Invitrogen, Waltham, MA, USA). The used cell lines were: hP2X2 B (RRID: AC line CVCL_D6U1), hP2X3 (RRID: AC line CVCL_D6U3), and hP2X2/3 (RRID: AC line CVCL_D6U2). The cells were cultured in MEM supplemented with non-essential amino acids (Gibco, Waltham, MA, USA), 10% FCS, and antibiotics, according to the manufacturer’s instructions. For stable cell lines, Flp-In-T-REx 293 cells were transfected using the calcium phosphate method with a mixture of plasmids (0.3 µg pcDNA5/FRT/TO P2X gene and 1.5 µg pOG44) and selected for hygromycin resistance. The cells were seeded on glass coverslips for electrophysiological measurements and used 24–48 h after tetracycline induction ([…]).
(§2) Membrane currents were recorded with a standard patch-clamp technique in the whole-cell configuration. The patch pipettes were pulled from borosilicate glass (ID 1.0 mm, OD 2.0 mm; VITROCOM, Mountain Lakes, NJ, USA) using a micropipette puller (P-97, Sutter Instrument, Novato, CA, USA). The pipettes were filled with intracellular solution containing (mM) 142 NaCl, 5 BAPTA, 5 EGTA, and 10 HEPES at pH 7.4. The pipette resistance was from 2.0 to 6.0 MΩ. The bath solution contained (mM) 142 NaCl, 10 EGTA, 10 HEPES, and 10 glucose at pH 7.4. To increase the speed of recovery from the hP2X3 receptors, we additionally used a bath solution containing (mM) 142 NaCl, 10 HEPES, 10 glucose, 2 CaCl2, and 1 MgCl2. The cells were lifted for recording from the chamber bottom by the patch pipette and positioned in front of the outlet of the application pipette.
(§3) Solutions switches were carried out with the application pipette that had three barrels (inner diameter ~600 µm, Warner Instruments) controlled by a step motor (SF-77B, Warner Instruments). The speed of the laminar solution flow out of the barrels was estimated to be 2–5 cm/s. One barrel contained a control solution and another was connected to a solution selector (Vici Valco Instruments), which allowed us to apply different test solutions by exchanging the solution during the interval (60 sec for P2X2 and P2X2/3 receptors, 180 s for P2X3 receptors) of applying the control solution. Cells expressing hP2X3 were washed with 3 Units/mL apyrase for 30 min to remove ATP. To ensure the comparability of the data points between each application, we rinsed hP2X3 with the following solution for 3 min after each ATP application (mM): 142 NaCl, 10 HEPES, 10 glucose, 2 CaCl2, and 1 MgCl2 at pH 7.4. After sufficient recovery, we switched to the bath solution for 10 s and then to the solution of interest. The speed of the switch around a whole cell was estimated to be below 10 ms by switching between different salt solutions.
(§4) The saturation of activation was determined with ATP at 100 µM. The currents were recorded with a HEKA EPC 10 amplifier in combination with the patchmaster software. The sampling rate was 10 kHz and the recordings were on-line filtered at 2.9 kHz using a four-pole Bessel filter. The currents were recorded at a constant holding potential of −50 mV and the series resistance was compensated with the patchmaster software up to 80%.
(§5) The concentration–activation relationships from whole-cell measurements in the HEK293 cells were obtained from the maximum currents during ATP application. These current amplitudes were normalised with respect to the current at saturating ATP (100 µM) and the resulting data points were fitted I/ImaxATP = Amp/(1 + (EC50/[X])^h) (1) with the Origin 2019® software using a non-linear curve fitting routine. I is the actual current amplitude and ImaxATP is the maximum current amplitude at saturating ATP. The amplitude Amp is the efficacy of the respective ligands. EC50 is the ligand concentration generating the half-maximum current and h is the respective Hill coefficient. [X] is the actual concentration of ATP to be tested. […]
In general terms: The patch-clamp technique gives a direct electrical read-out from membranes.

Experiment [2] has as its target T2, human P2X3 receptors (Homo sapiens, UniProt P56373).
T2 construct: expressed in transfected cells
T2 sequence (P56373 1-397): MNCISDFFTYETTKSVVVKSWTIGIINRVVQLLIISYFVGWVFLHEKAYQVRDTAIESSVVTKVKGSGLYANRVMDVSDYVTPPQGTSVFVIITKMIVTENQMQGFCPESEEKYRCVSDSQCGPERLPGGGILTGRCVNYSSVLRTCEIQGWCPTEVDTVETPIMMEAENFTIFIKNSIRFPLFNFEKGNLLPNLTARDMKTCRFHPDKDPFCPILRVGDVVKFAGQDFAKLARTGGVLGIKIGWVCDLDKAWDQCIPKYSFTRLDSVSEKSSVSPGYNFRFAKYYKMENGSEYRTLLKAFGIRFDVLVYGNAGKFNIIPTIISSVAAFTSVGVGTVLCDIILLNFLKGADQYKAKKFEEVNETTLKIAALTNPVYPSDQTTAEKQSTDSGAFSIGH
The experiment in a line: Whole-cell patch-clamp concentration-activation, HEK293 cells stably expressing hP2X3. To be noted: for Hill: hP2X3, Hill coefficient of concentration-activation fit; for Effect (Fold in ATP Potency): hP2X3, relative to ATP; for Effect (Fold in ATP Efficacy): hP2X3, relative to current at 100 µM ATP; for EC50: hP2X3, whole-cell, -50 mV, divalent-cation-free bath with 10 mM EGTA, normalised to 100 µM ATP. As to the method:
as §1, §2, §3, §4, §5

Experiment [3] concerns the target T3, human P2X2/3 receptors (Homo sapiens, UniProt P56373+Q9UBL9).
T3 construct: expressed in transfected cells
T3 sequence (Q9UBL9 1-404 isoform Q9UBL9-2): T1 sequence (Q9UBL9 1-404 isoform Q9UBL9-2)
T3 sequence (P56373 1-397): T2 sequence (P56373 1-397)
The experiment in a line: Whole-cell patch-clamp concentration-activation, HEK293 cells stably expressing hP2X2/3. As to the method: as §1, §2, §3, §4, §5

Values joined by “and” are separate entries in the source; they are usually repeats but may differ in a detail not shown here. Equal values may be shown once.

On to `Nc1ncnc2c1ncn2[C@@H]1O[C@H](COP(=O)(O)CP(=O)(O)OP(=O)(O)O)[C@@H](O)[C@H]1O` [α,βMe-ATP, αβmethylene-ATP], for which, in experiment [1], the Hill is reported as 1.7 ± 1.5; the “Effect (Fold in ATP Potency)” value is 0.1 fold; the “Effect (Fold in ATP Efficacy)” value was determined as 0.1 fold; the 50% effective concentration (EC50) is ~6.8 µM and 6.8 µM. The “Agonist behaviour (current response)” value in experiment [1] (hP2X2, result in words) is reported as “only partially”. Further, in experiment [2], the Hill is 1.6 ± 0.7, the “Effect (Fold in ATP Potency)” value was determined as 0.1 fold, the “Effect (Fold in ATP Efficacy)” value is reported as 1.9 fold and the EC50 was 9.6 ± 3.3 µM.
Regarding `Nc1ncnc2c1ncn2[C@@H]1O[C@H](COP(=O)(O)OP(=O)(O)OP(=O)(O)O)[C@@H](O)[C@H]1O` [ATP], the “Current response in presence of Mg2+” value in experiment [1] (hP2X2, 0.3 µM ATP with 1 mM MgCl2 (27.5 nM ATP4- + 272.5 nM Mg2+ATP)) is “completely abolished”. In addition, the Hill in experiment [1] was 1.1 ± 0.1; in experiment [3] (hP2X2/3, Hill coefficient of concentration-activation fit), 0.9 ± 0.1; in experiment [2], 1.3 ± 0.2. In addition, the “Effect (Fold in ATP Potency)” value in experiment [1] is reported as 1 fold; in experiment [3] (hP2X2/3, relative to ATP), 1 fold; in experiment [2], 1 fold. Moreover, the “Effect (Fold in ATP Efficacy)” value in experiment [1] came out at 1 fold; in experiment [3] (hP2X2/3, relative to current at 100 µM ATP) it was 1 fold; in experiment [2] it was 1 fold. Further, the concentration giving a half-maximal response (EC50) came to 0.7 ± 0.1 µM in experiment [1]; 2.7 ± 0.4 µM in experiment [3] (hP2X2/3, whole-cell, -50 mV, divalent-cation-free bath with 10 mM EGTA, normalised to 100 µM ATP); 1.1 ± 0.1 µM in experiment [2].

The term EC50 denotes the concentration giving half of the maximal effect.
